Assay results as given in patent publication US20160281133A1, “STABILIZATION AND ISOLATION OF EXTRACELLULAR NUCLEIC ACIDS” (QIAGEN GMBH, priority 2013, published 2016).
Counter-ions that a name gives are not always drawn. Where a SMILES comes first, the peptide text is derived from it. The star is where a group is joined. Cbz = O=C(OCc1ccccc1)*

Key:
caspase-1 = target: T1, caspase-1 (Homo sapiens, UniProt P29466); conditions: cited from earlier work
T1 sequence (P29466 120-297 limits assumed): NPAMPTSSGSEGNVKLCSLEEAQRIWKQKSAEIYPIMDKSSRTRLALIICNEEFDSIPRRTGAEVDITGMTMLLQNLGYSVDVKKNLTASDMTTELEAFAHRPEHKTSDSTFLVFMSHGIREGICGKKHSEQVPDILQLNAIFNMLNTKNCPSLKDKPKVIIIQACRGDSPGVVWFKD
T1 sequence (P29466 317-404 limits assumed): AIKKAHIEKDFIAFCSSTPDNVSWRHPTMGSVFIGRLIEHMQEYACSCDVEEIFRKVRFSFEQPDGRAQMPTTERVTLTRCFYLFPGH

calpain II = target: T2, calpain II (Homo sapiens, UniProt P17655); conditions: cited from earlier work
T2 sequence (P17655 1-700): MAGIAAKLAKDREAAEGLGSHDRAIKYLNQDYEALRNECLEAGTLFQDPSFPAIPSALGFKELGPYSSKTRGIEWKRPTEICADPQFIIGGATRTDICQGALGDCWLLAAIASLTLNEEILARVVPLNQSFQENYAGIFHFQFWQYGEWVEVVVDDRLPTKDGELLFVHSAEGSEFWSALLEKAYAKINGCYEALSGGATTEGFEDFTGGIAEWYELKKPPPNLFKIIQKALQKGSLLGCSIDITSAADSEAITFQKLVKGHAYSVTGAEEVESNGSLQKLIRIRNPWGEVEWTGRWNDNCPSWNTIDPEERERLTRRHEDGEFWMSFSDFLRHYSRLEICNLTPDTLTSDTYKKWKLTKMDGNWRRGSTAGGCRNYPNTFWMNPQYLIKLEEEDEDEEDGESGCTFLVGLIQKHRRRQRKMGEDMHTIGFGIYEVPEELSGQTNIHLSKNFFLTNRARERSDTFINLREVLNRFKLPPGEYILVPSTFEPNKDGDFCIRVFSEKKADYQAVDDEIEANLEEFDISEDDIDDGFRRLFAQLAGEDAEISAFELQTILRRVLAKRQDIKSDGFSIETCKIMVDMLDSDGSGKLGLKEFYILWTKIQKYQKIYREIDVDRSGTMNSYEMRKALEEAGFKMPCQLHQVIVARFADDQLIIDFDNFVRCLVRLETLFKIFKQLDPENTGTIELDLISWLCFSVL
T2 sequence (P04632 1-268 partner): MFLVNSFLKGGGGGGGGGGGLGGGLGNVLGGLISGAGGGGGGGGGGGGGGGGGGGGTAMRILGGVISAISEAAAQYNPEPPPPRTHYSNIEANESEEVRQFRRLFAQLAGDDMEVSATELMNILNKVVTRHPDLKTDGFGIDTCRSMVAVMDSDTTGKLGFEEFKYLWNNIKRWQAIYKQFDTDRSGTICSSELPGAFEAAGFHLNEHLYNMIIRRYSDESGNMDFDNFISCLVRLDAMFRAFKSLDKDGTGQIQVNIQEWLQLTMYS

[1] = target: N-SMase (neutral sphingomyelinase); conditions: rat brain; cited from earlier work
MCF7 breast cancer cells = conditions: at 20 μM; cited from earlier work
cathepsin L = cathepsin L (Homo sapiens, UniProt P07711); conditions: cited from earlier work
caspase-3 = target: T3, caspase-3 (Homo sapiens, UniProt P42574); conditions: cited from earlier work
T3 sequence (P42574 29-175 limits assumed): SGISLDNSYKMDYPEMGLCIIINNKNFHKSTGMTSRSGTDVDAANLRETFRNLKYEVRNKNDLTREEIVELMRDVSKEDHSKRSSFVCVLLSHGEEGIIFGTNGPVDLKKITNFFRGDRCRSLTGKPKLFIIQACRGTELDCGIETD
T3 sequence (P42574 176-277 limits assumed): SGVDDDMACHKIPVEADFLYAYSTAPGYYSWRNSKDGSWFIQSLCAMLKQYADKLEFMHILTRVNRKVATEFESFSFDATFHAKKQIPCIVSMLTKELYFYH

[2] = in neuron culture medium at 37° C.; cited from earlier work
white blood cells = assay: 18S rDNA qPCR (66 bp / 500 bp): release of genomic DNA into plasma of stored stabilized blood, examples 1-4; type: cell-based, human
Protocol: Blood from two different donors was collected into 10 ml K2 EDTA tubes (BD). 4.5 ml of the respectively collected blood was mixed with 0.9 ml of two different stabilization solutions A and B. Said stabilization solutions contained (per ml of stabilization solution):
A: 34.2 mg K2 EDTA and 0.15 g or 0.18 g butanamide in water When using stabilization solution A, the following final concentration in the blood/stabilization mixture was obtained: 7.2 mg K2 EDTA/ml and 2.5% (w/v) or 3% (w/v) butanamide. […] When using stabilization solution B, the following final concentration in the blood/stabilization mixture was obtained: 7.2 mg K2 EDTA/ml, 3% (w/v) butanamide and 1 μM Quinoline-Val-Asp-CH2-OPH (caspase inhibitor).
All stabilized blood samples were set up in triplicates per condition and test time point. At time point 0 (reference), immediately after mixing the stabilization solution and blood, plasma was generated and the circulating extracellular DNA was extracted. The residual stabilized blood sample was stored for three days and six days at room temperature.
Plasma was generated from the stabilized and unstabilized (EDTA) blood samples by inverting the blood containing tubes for four times. Then, the tubes were centrifuged for 10 minutes at 1900×g at 4° C. 2.5 ml of the plasma fraction was transferred into a fresh 15 ml falcon tube and centrifuged for 10 minutes at 16.000×g at 4° C. 2 ml of the respectively cleared plasma was used for extracellular nucleic acid isolation using the QIAamp circulating nucleic acid kit (QIAGEN) according to the manufacturer's instructions.
The isolated extracellular DNA was analyzed using two different qPCR assays, targeting different fragment lengths of the 18S ribosomal DNA:
18S ribosomal DNA: 66 bp amplicon 18S ribosomal DNA: 500 bp amplicon
Cycle threshholds of the individual samples were translated into amount of gDNA in the eluate, according to a gDNA standard curve. The gDNA amount of the storage time points was compared to the time zero gDNA level from the same donor and is shown as fold increase in the figures. […]

HeLa cell mitochondria = conditions: at 5 μM; cited from earlier work
whole blood samples [3] = assay: DNA size distribution by chip gel electrophoresis (blood cell stability/DNA release); type: cell-based, human; conditions: 20 μM in 10 ml K2E blood; day 3 and day 7
Protocol: To separate the blood plasma from the whole blood, the blood samples were centrifuged for 15 min at 5000 rpm, and the obtained plasma samples were again centrifuged for 10 min at 16.000×g at 4° C.
The circulating, extracellular nucleic acids were purified from the obtained plasma samples using the QIAamp® Circulating NA Kit (QIAGEN, according to the handbook). In brief: • 10 ml sample input; • lysis: 1 ml Proteinase K and 8 ml Buffer ACL (QIAGEN) • binding: 18 ml Buffer ACB (QIAGEN) • wash-steps: unchanged and according to handbook • elution in 60 μl Buffer AVE (QIAGEN)
1.3.1 Measurement of the blood cell stability/DNA release by the determination of DNA size distribution using a chip gel electrophoresis (2100 Bioanalyzer; Agilent Technologies; Inc., USA) according to manufacturer's instruction (see handbook Agilent DNA 7500 and DNA 12000 Kit Guide), but 1.5 μl instead of 1 μl sample were transferred to the wells.
Each tested caspase inhibitor was added to whole blood samples (20 μM end concentration in 10 ml blood; blood was collected into Vacutainer K2E Tubes; BD). The whole blood sample was processed as described in section 1 (plasma preparation and nucleic acid isolation).
The eluted circulating cell-free DNA was separated by size using chip gel electrophoresis (for details on the method see above). […]

whole blood samples [4] = assay: 18S DNA duplex real time PCR assay, increase of DNA in plasma of stored blood, example 5; type: cell-based, human; conditions: 20 μM caspase inhibitor in whole blood; storage at RT
cells = conditions: even at extremely high concentrations; cited from earlier work

Chain of cathepsin L (P07711 114-333, species assumed): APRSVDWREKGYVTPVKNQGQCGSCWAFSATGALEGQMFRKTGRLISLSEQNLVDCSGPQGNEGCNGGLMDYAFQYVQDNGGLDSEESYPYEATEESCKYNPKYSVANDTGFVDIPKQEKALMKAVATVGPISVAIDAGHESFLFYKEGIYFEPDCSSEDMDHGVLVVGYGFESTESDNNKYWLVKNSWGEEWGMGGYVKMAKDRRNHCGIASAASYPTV

For “Ac-Tyr-Val-Ala-Asp-CMK [Caspase-1 Inhibitor II]”, which Ki (caspase-1) is on record?
Its Ki is 0.76 nM.

For `CC(C)C(NC(=O)OCc1ccccc1)C(=O)NC(C=O)Cc1ccccc1` (stereo not drawn) [Calpain Inhibitor III, Z-Val-Phe-CHO] (Cbz-Val-Phe-aldehyde; configuration not given here), which Ki (calpain II) is on record?
Its Ki is 8 nM.

Which Ki (caspase-1) does the source give for “Ac-Ala-Ala-Val-Ala-Leu-Leu-Pro-Ala-Val-Leu-Leu-Ala-Leu-Leu-Ala-Pro-Tyr-Val-Ala-Asp-CHO (Ac-AAVALLPAVLLALLAPYVAD-aldehyde; SMILES CC(=O)N[C@@H](C)C(=O)N[C@@H](C)C(=O)N[C@H](C(=O)N[C@@H](C)C(=O)N[C@@H](CC(C)C)C(=O)N[C@@H](CC(C)C)C(=O)N1CCC[C@H]1C(=O)N[C@@H](C)C(=O)N[C@H](C(=O)N[C@@H](CC(C)C)C(=O)N[C@@H](CC(C)C)C(=O)N[C@@H](C)C(=O)N[C@@H](CC(C)C)C(=O)N[C@@H](CC(C)C)C(=O)N[C@@H](C)C(=O)N1CCC[C@H]1C(=O)N[C@@H](Cc1ccc(O)cc1)C(=O)N[C@H](C(=O)N[C@@H](C)C(=O)N[C@H](C=O)CC(=O)O)C(C)C)C(C)C)C(C)C) [Caspase-1 Inhibitor I, Cell-Permeable]” here?
The Ki was 1 nM.

Which IC50 [1] does the source give for `O=C(C=Cc1ccc(C=CC(=O)Nc2ccc(C3=NCCN3)cc2)cc1)Nc1ccc(C2=NCCN2)cc1` [GW 4869] here?
The IC50 was about 1000 nM.

What about the “protection against TNF-α or diamine-induced cell death” value (MCF7 breast cancer cells) of the same molecule?
Its value is “specific PLC. Reported to offer complete protection against TNF-α”.

What does the source list for `CC(C)C[C@H](NC(=O)OCc1ccccc1)C(=O)N[C@@H](CC(C)C)C(=O)N[C@@H](Cc1ccc(O)cc1)C(=O)CF` [Calpain Inhibitor IV, Z-Leu-Leu-Tyr-CH2F] (HELM PEPTIDE1{[O=C(OCc1ccccc1)[*:2]].L.L.Y.[FC[*:1]]}$$$$V2.0)?
k2 (calpain II; irreversible inhibitor): 28,900 M−1s−1). Also acts as an inhibitor of cathepsin L (k2 =; k2 (cathepsin L): 680,000 M−1s−1).

For “Ac-Ala-Ala-Val-Ala-Leu-Leu-Pro-Ala-Val-Leu-Leu-Ala-Leu-Leu-Ala-Pro-Asp-Glu-Val-Asp-CHO (Ac-AAVALLPAVLLALLAPDEVD-aldehyde; SMILES CC(=O)N[C@@H](C)C(=O)N[C@@H](C)C(=O)N[C@H](C(=O)N[C@@H](C)C(=O)N[C@@H](CC(C)C)C(=O)N[C@@H](CC(C)C)C(=O)N1CCC[C@H]1C(=O)N[C@@H](C)C(=O)N[C@H](C(=O)N[C@@H](CC(C)C)C(=O)N[C@@H](CC(C)C)C(=O)N[C@@H](C)C(=O)N[C@@H](CC(C)C)C(=O)N[C@@H](CC(C)C)C(=O)N[C@@H](C)C(=O)N1CCC[C@H]1C(=O)N[C@@H](CC(=O)O)C(=O)N[C@@H](CCC(=O)O)C(=O)N[C@H](C(=O)N[C@H](C=O)CC(=O)O)C(C)C)C(C)C)C(C)C) [Caspase-3 Inhibitor I, Cell-Permeable]”, which Ki (caspase-3) is on record?
Its Ki is under 1 nM.

With `N=c1sc2c(n1CC(=O)c1ccc([N+](=O)[O-])cc1)CCCC2` [Pifithrin-α, p-Nitro] as the molecule, how does the t½ [2] read?
The t½ was “biological systems (t½ = 8 h in neuron culture medium at 37° C.)”.

For `CCCC(N)=O` [butanamide], which “stabilization capabilities compared to DMAA” value (white blood cells; Example 2, 2.5, 3, 3.5% (w/v) butanamide with 1 μM caspase inhibitor and EDTA vs 5% DMAA) is on record?
The value was “at least comparable stabilization capabilities to DMAA”.

What about the “stabilization capabilities compared to the stabilization solution comprising DMAA” value (white blood cells; Example 3, 0.5, 1.5, 2% butanamide in combination with 2.5, 1.5, 1% DMPA, 1 μM caspase inhibitor, EDTA) of the same molecule?
Its value is “comparable stabilization capabilities”.

What about the “increase in 18S rDNA” value (white blood cells; Example 4, 0.5, 1.5, 2.5% (w/v) butanamide with 1 μM caspase inhibitor and 7.2 mg K2EDTA/ml) of the same molecule?
Its value is “significantly reduced increase in 18S rDNA”.

Which “inhibition of Bid-induced cytochrome c release” value (HeLa cell mitochondria) does the source give for `OC(CN1CCNCC1)Cn1c2ccc(Br)cc2c2cc(Br)ccc21` (racemic) [Bax Channel Blocker, (±)-1-(3,6-Dibromocarbazol-9-yl)-3-piperazin-1-yl-propan-2-ol, bis TFA] here?
Its value is “cyctochrome c release from HeLa cell mitochondria (~80%”.

With `CC(C)C(NC(=O)c1ccc2ccccc2n1)C(=O)NC(CC(=O)O)C(=O)COc1c(F)cccc1F` (stereo not drawn) [Q-VD-OPh, Quinoline-Val-Asp-CH2-OPH] as the molecule, how does the “ladder-like pattern of bands (release and fragmentation of genomic DNA) compared to controls” value (whole blood samples [3]) read?
Its value is “significantly reduced ladder-like patterns”.

What about the “increase of DNA from day 0 to day 3 or 7” value (whole blood samples [4]) of the same molecule?
Its value is “reduced increase of DNA”.

What about the toxicity to cells (cells) of the same molecule?
The toxicity to cells was “not toxic to cells”.
